Assay results from US20090143279A1 (priority 2007, published 2009).
“And” between values parts separate entries of the source, which are not always exact repeats. Equal entries are not always repeated. Where two headings read alike, the source gives them in different places.

What was measured:
nuOXPHOS transcripts = assay type: cell-based, mouse; conditions: for nucOXPHOS Z: Table 7, C2C12 myotubes, 48 h, composite Z-score
mtOXPHOS transcripts = assay type: cell-based, mouse; conditions: for mito-OXPHOS Z: Table 7, C2C12 myotubes, 48 h, composite Z-score
reactive oxygen species = assay type: cell-based, mouse
OXPHOS gene expression = assay type: cell-based, mouse
[1] = system: mitochondrial membrane potential; assay type: cell-based, mouse
[2] = system: cellular dehydrogenase activity
cytochrome c = assay type: cell-based, mouse
[3] = Table 6, C2C12 myotubes, 48 h, composite Z-score
[4] = composite Z-score vs DMSO, Conc 20 μM
[5] = normalized composite Z-score vs mock-treated (DMSO) wells, Conc 20 μM
[6] = Table 3, differentiated C2C12 myotubes, 48 h treatment, composite Z-score vs DMSO

With `CCN(CC)C(=S)SSC(=S)N(CC)CC` [Disulfiram, reference compound] the “nucOXPHOS Z” value (nuOXPHOS transcripts) was −4.10 and the “mito-OXPHOS Z” value (mtOXPHOS transcripts) was 0.93.
`CC(=O)Nc1ccc(O)cc1` [acetaminophen] was tested, and the ROS (reactive oxygen species) was 0.527 and the mitoOX (mtOXPHOS transcripts) was 0.317.
`N=C1C=CC(=C(c2ccc(N)cc2)c2ccc(N)cc2)C=C1` [Pararosaniline, reference compound] was tested, and the “nucOXPHOS Z” value (nuOXPHOS transcripts) was −2.25 and the “mito-OXPHOS Z” value (mtOXPHOS transcripts) was −5.43.
In the case of `COc1ccc2c(c1)OCC(Cc1ccc(OC(C)=O)c(OC)c1)C2=O` (stereo not drawn) [deoxysappanone (B) 7,3′-dimethyl ether acetate, reference compound], the “ROS Zscore” value (reactive oxygen species; [3]) is reported as −1.894 and the GEHTS_Zscore (OXPHOS gene expression; [3]) is reported as −0.723.
`COc1ccc2c(c1)CC[C@@H]1[C@@H]2CC[C@]2(C)[C@@H](O)[C@H](O)C[C@@H]12` [estriol methyl ether] gave a Viability (C2C12 myotubes) of 0.054, a ΔΨm [1] of −0.046 and an MTT [2] of −1.611. The cyt c (cytochrome c; [4]) was 0.241 and the ROS (reactive oxygen species) was 0.299.
Molecule `COC(=O)[C@]1(C)CC[C@]2(C)CC[C@]3(C)C4=CC=C5C(=CC(=O)C(O)=C5C)[C@]4(C)CC[C@@]3(C)[C@@H]2C1` [pristimerin] has a Viability (C2C12 myotubes; [4]) of −5.473, a ΔΨm [1, 4] of −3.651 and an MTT [2, 4] of −6.164. The cyt c (cytochrome c; [4]) was −5.896 and the ROS (reactive oxygen species; [4]) was −3.693.
In the case of `CC(C)=CCC[C@]1(C)C=Cc2c(O)c3c(c(CC=C(C)C)c2O1)O[C@]12C(=C[C@@H]4CC1C(C)(C)O[C@@]2(C/C=C(/C)C(N)=O)C4=O)C3=O` [gambogic acid amide, reference compound], the “nucOXPHOS Z” value (nuOXPHOS transcripts) is reported as −4.01 and the “mito-OXPHOS Z” value (mtOXPHOS transcripts) is reported as −2.68.
`OCCN1CCN(CCCN2c3ccccc3Sc3ccc(Cl)cc32)CC1` [Perphenazine, reference compound] was tested, and the “decline of nuOXPHOS expression” value (nuOXPHOS transcripts; 20 μM, within the first hour of treatment) was 21%.
`O=C1C(O)=C(O)C(=O)C(O)=C1O` [tetrahydroxy-1,4-quinone] was tested, and the Viability (C2C12 myotubes) was −1.006, the ΔΨm [1] was −0.511 and the MTT [2] was −1.965. The cyt c (cytochrome c) was −0.785 and the ROS (reactive oxygen species) was 0.667.
With `COc1ccc2c(c1)OC/C(=C/c1ccc(OC)c(OC)c1)C2=O` [sappanone (A) trimethyl ether, reference compound] the “ROS Zscore” value (reactive oxygen species; [3]) was 0.1195 and the GEHTS_Zscore (OXPHOS gene expression; [3]) was 2.376.
With `O=c1cccc2n1C[C@@H]1CNC[C@H]2C1` [cytisine] the cyt c (cytochrome c) was 0.186 and 0.095, the ROS (reactive oxygen species) was 1.150 and the GE-HTS (OXPHOS gene expression) was 0.025.
`O=C1C[C@@H](c2ccc(O)cc2)Oc2cc(O)ccc21` [liquiritigenin] showed a Viability (C2C12 myotubes; [5]) of 1.353, a ΔΨm [1, 5] of 1.004 and an MTT [2, 5] of −0.429. The cyt c (cytochrome c; [5]) was 0.523, the ROS (reactive oxygen species; [5]) was 0.301 and the GE-HTS (OXPHOS gene expression; [5]) was −0.749. It also gave a mitoOX (mtOXPHOS transcripts; [5]) of −1.069.
`CCN(CC)CCCC(C)Nc1c2ccc(Cl)cc2nc2ccc(OC)cc12` (stereo not drawn) [Quinacrine, reference compound] was tested, and the “nucOXPHOS Z” value (nuOXPHOS transcripts) was −2.65 and the “mito-OXPHOS Z” value (mtOXPHOS transcripts) was −2.81.
For `CN(C)C(=O)Oc1cccc([N+](C)(C)C)c1` [Neostigmine, reference compound], the “nucOXPHOS Z” value (nuOXPHOS transcripts) was −3.54 and the “mito-OXPHOS Z” value (mtOXPHOS transcripts) was −3.45.
In the case of `COc1cc2c(c(OC)c1OC)-c1ccc(OC)c(=O)cc1[C@@H](NC(C)=O)CC2` [Colchicine, reference compound], the nucOX (nuOXPHOS transcripts) is reported as 0.807 and 1.549, the ROS levels (reactive oxygen species) is reported as “did not display the same decrease in ROS levels” and the OXPHOS expression (OXPHOS gene expression) is reported as “modest increase”.
`CC(C)[C@]12O[C@H]1[C@@H]1O[C@@]13[C@@]1(C)CCC4=C(COC4=O)[C@@H]1C[C@@H]1O[C@@]13C2=O` [Triptonide, reference compound] was tested, and the “nucOXPHOS Z” value (nuOXPHOS transcripts) was −2.18 and the “mito-OXPHOS Z” value (mtOXPHOS transcripts) was 5.02.
With “podophyllotoxin acetate [reference compound]” the “ROS Zscore” value (reactive oxygen species; [6]) was −1.656 and the GEHTS_Zscore (OXPHOS gene expression; [6]) was 3.506.
Molecule `Cc1cc(C2CCCCC2)n(O)c(=O)c1.NCCO` [ciclopirox ethanolamine] has a Viability (C2C12 myotubes) of 0.101, a ΔΨm [1] of 2.994 and an MTT [2] of −2.239. It also gave a cyt c (cytochrome c) of −0.351 and an ROS (reactive oxygen species) of −1.968.
`CC(C)NC[C@@H](O)COc1ccc(CC(N)=O)cc1` [(R)-(+)-atenolol] gave a Viability (C2C12 myotubes) of −0.846, a ΔΨm [1] of −0.573 and an MTT [2] of −1.053. It also gave a cyt c (cytochrome c) of −0.033 and an ROS (reactive oxygen species) of 1.639.
For `COc1ccc2cc([C@@H](C)C(=O)[O-])ccc2c1.[Na+]` [(R)-naproxen sodium salt], the Viability (C2C12 myotubes) was 0.632, the ΔΨm [1] was −0.253 and the MTT [2] was 0.325. The cyt c (cytochrome c) was 0.444 and the ROS (reactive oxygen species) was −0.736.
`Cc1c(N(C)C)c(=O)n(-c2ccccc2)n1C` [amidopyrine] showed a Viability (C2C12 myotubes) of 0.691, a ΔΨm [1] of −0.496 and an MTT [2] of −0.051. It also gave a cyt c (cytochrome c) of 0.748 and an ROS (reactive oxygen species) of −0.776.
